Tested on: 171881-019-R-J1-PDC tumor spheroids, viability
Test: Anticancer human tumor 171881-019-R-J1-PDC patient-derived invasive breast carcinoma cell line growth inhibition [GQUAD]
Conditions: spheroids with HUVEC and MSC; for IC50: curve of first compound; for viability, T/C: stronger effect = lower value
Outline: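 Multi-cell-type spheroids of tumor cells with HUVEC and mesenchymal stem cells, treated with drug combinations. Concentrations descend in half-log steps from near clinical Cmax, or from 10 microM where Cmax is unknown; viability read-out.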

[1] = second compound 0.0316 µM, first compound 0.0316 µM
[2] = second compound 0.0316 µM, first compound 0.1 µM
[3] = second compound 0.0316 µM, first compound 0.316 µM
[4] = second compound 0.0316 µM, first compound 1 µM
[5] = second compound 0.0316 µM, first compound 3.16 µM
[6] = second compound 0.0316 µM, first compound 10 µM
[7] = second compound 0.1 µM, first compound 0.0316 µM
[8] = second compound 0.1 µM, first compound 0.1 µM
[9] = second compound 0.1 µM, first compound 0.316 µM
[10] = second compound 0.1 µM, first compound 1 µM
[11] = second compound 0.1 µM, first compound 3.16 µM
[12] = second compound 0.1 µM, first compound 10 µM
[13] = second compound 0.316 µM, first compound 0.0316 µM
[14] = second compound 0.316 µM, first compound 0.1 µM
[15] = second compound 0.316 µM, first compound 0.316 µM
[16] = second compound 0.316 µM, first compound 1 µM
[17] = second compound 0.316 µM, first compound 3.16 µM
[18] = second compound 0.316 µM, first compound 10 µM
[19] = second compound 1 µM, first compound 0.0316 µM
[20] = second compound 1 µM, first compound 0.1 µM
[21] = second compound 1 µM, first compound 0.316 µM
[22] = second compound 1 µM, first compound 1 µM
[23] = second compound 1 µM, first compound 3.16 µM
[24] = second compound 1 µM, first compound 10 µM
[25] = second compound 3.16 µM, first compound 0.0316 µM
[26] = second compound 3.16 µM, first compound 0.1 µM
[27] = second compound 3.16 µM, first compound 0.316 µM
[28] = second compound 3.16 µM, first compound 1 µM
[29] = second compound 3.16 µM, first compound 3.16 µM
[30] = second compound 3.16 µM, first compound 10 µM
[31] = second compound 10 µM, first compound 0.0316 µM
[32] = second compound 10 µM, first compound 0.1 µM
[33] = second compound 10 µM, first compound 0.316 µM
[34] = second compound 10 µM, first compound 1 µM
[35] = second compound 10 µM, first compound 3.16 µM
[36] = second compound 10 µM, first compound 10 µM
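Note: spheroids exposed to compounds for 7 days.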
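Throughout, for viability, T/C: 100% = DMSO vehicle control viability.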

`CC1COCCN1c1cc(C2(O)CC3CCC(C2)O3)c2cnn(-c3ccn[nH]3)c2n1` (centres undefined) + Cc1cnc(CNC(=O)c2c(=O)c3ccc(N4CCCN(C)CC4)nc3n3c2sc2ccccc23)cn1 was tested, and the IC50 (second compound 0.0316 µM) was under 31.6 nM, the IC50 (second compound 0.1 µM) was under 31.6 nM and the IC50 (second compound 0.316 µM) was under 31.6 nM. The IC50 (second compound 1 µM) was under 31.6 nM, the IC50 (second compound 3.16 µM) was under 31.6 nM and the IC50 (second compound 10 µM) was under 31.6 nM. The viability, T/C [1] was 33.7%, the viability, T/C [2] was 16.5% and the viability, T/C [3] was 9.78%. For the same compound, the viability, T/C [4] was 5.45%, the viability, T/C [5] was 4.11% and the viability, T/C [6] was 2.67%. The viability, T/C [7] was 33.8%, the viability, T/C [8] was 17.1% and the viability, T/C [9] was 9.54%. The viability, T/C [10] was 5.51%, the viability, T/C [11] was 4.25% and the viability, T/C [12] was 3.04%. For the same compound, the viability, T/C [13] was 34.8%, the viability, T/C [14] was 21.1% and the viability, T/C [15] was 10.6%. For the same compound, the viability, T/C [16] was 5.81%, the viability, T/C [17] was 4.2% and the viability, T/C [18] was 3.15%. The viability, T/C [19] was 35.5%, the viability, T/C [20] was 22.2% and the viability, T/C [21] was 13.5%. The viability, T/C [22] was 6.47%, the viability, T/C [23] was 4.91% and the viability, T/C [24] was 2.51%. It also gave a viability, T/C [25] of 44.8%, a viability, T/C [26] of 27.9% and a viability, T/C [27] of 16.4%. The viability, T/C [28] was 6.87%, the viability, T/C [29] was 4.24% and the viability, T/C [30] was 0.23%. For the same compound, the viability, T/C [31] was 43.3%, the viability, T/C [32] was 31.1% and the viability, T/C [33] was 15.4%. The viability, T/C [34] was 7.69%, the viability, T/C [35] was 3.95% and the viability, T/C [36] was 0.2%.

For `CCCS(=O)(=O)Nc1ccc(F)c(C(=O)c2c[nH]c3ncc(-c4ccc(Cl)cc4)cc23)c1F` + Cc1[nH]c2ccc(F)cc2c1-c1nc2c3cccnc3c3ncccc3c2[nH]1, the IC50 (second compound 0.0316 µM) was 9320 nM, the IC50 (second compound 0.1 µM) was 8860 nM and the IC50 (second compound 0.316 µM) was 7730 nM. It also gave an IC50 (second compound 1 µM) of 5620 nM, an IC50 (second compound 3.16 µM) of under 31.6 nM and an IC50 (second compound 10 µM) of 31.6 nM. The viability, T/C [1] was 104%, the viability, T/C [2] was 106% and the viability, T/C [3] was 102%. The viability, T/C [4] was 121%, the viability, T/C [5] was 99% and the viability, T/C [6] was 46.7%. For the same compound, the viability, T/C [7] was 105%, the viability, T/C [8] was 106% and the viability, T/C [9] was 105%. It also gave a viability, T/C [10] of 107%, a viability, T/C [11] of 110% and a viability, T/C [12] of 43.3%. For the same compound, the viability, T/C [13] was 90.2%, the viability, T/C [14] was 77.2% and the viability, T/C [15] was 98.2%. The viability, T/C [16] was 93.2%, the viability, T/C [17] was 95.8% and the viability, T/C [18] was 38.1%. The viability, T/C [19] was 73.7%, the viability, T/C [20] was 60.8% and the viability, T/C [21] was 82.4%. It also gave a viability, T/C [22] of 80.7%, a viability, T/C [23] of 77.4% and a viability, T/C [24] of 25%. The viability, T/C [25] was 7.61%, the viability, T/C [26] was 8.32% and the viability, T/C [27] was 6.95%. The viability, T/C [28] was 5.17%, the viability, T/C [29] was 12.6% and the viability, T/C [30] was 8.93%. It also gave a viability, T/C [31] of 46.9%, a viability, T/C [32] of 45.5% and a viability, T/C [33] of 44.4%. For the same compound, the viability, T/C [34] was 55.2%, the viability, T/C [35] was 51.3% and the viability, T/C [36] was 18.5%.

Source: PubChem BioAssay AID2060498 (Molecular Pharmacology Branch, DTP, NCI, 2025)
